Measurements from patent US6225321A (priority 1997, dated 2001).

Assays:
[1] = Half-life / conversion of dinalbuphine sebacoyl ester in human blood; format: in vitro ADME; details: for Elimination half-life: n = 3, mean ± S.E.
Protocol: IV. For Human Experiments
(a) Dinalbuphine sebacoyl ester was dissolved in acetonitrile, the concentration was 10 mg/ml.
(b) 250 ml of whole blood collected from rats given dinalbuphine sebacoyl ester, and anticoagulant was added.

Sprague Dawley rats = assay: Analgesic effect, cold ethanol bath tail flick test, intramuscular, rats; format: in vivo, rat
Protocol: Sprague Dawley rats(175 to 225 g) were used. Each group consisted of 6 rats and each rats was injected once intramuscularly on the rear leg. […]
The dose for each rat was 25 micromole per kg, intramuscularly.
In the experiment, a circulating cold ethanol bath with a temperature maintained at -20° C. was set up. After dosing, the rat tail(1/3 from the tip) was immersed in the bath. The latency for the rat to flick its tail from the bath was measured to be the nociceptive threshold. The effect of various opium alkaloid preparations can be determined with this test.
The nociceptive effect can be calculated as follows: [formula]
35, 25, 15 minutes before dosing, Male Sprague Dawley rat(175-225 g) was tested to measure the basic response latency. The time to top the experiment was set at 40 seconds to prevent the tail from cold sore. No cold sore were found in 40 sec. Five minutes after the drug was given to the rat, the flick test was performed every 10 minutes or more. […]
(c) Dinalbuphine sebacoyl ester, dose was 7.8125 μ/kg, 31.25 μM/kg, 125 μM/kg.
(d) 50 mg/ml dinalbuphine sebacoyl ester parenteral dosage forms, dinalbuphine sebacoyl ester was prepared in sesame oil.

[2] = Half-life / conversion of dinalbuphine sebacoyl ester in rat blood; format: in vitro ADME; details: for Elimination half-life: n = 3, mean ± S.E.
Protocol: (a) Dinalbuphine sebacoyl ester(SDN) was dissolved in acetonitrile, the concentration was 7.75 mg/ml.
(b) […] of whole blood was collected from rats given dinalbuphine sebacoyl ester, and anticoagulant was added.

[3] = Half-life / conversion of dinalbuphine sebacoyl ester in dog blood; format: in vitro ADME; details: for Elimination half-life: n = 3, mean ± S.E.
Protocol: (a) Dinalbuphine sebacoyl ester was dissolved in acetonitrile, the concentration was 12.5 mg/ml.
(b) 200 ml of whole blood collected from rats given dinalbuphine sebacoyl ester, and anticoagulant was added.

[4] = Half-life / conversion of dinalbuphine sebacoyl ester in rabbit blood; format: in vitro ADME; details: for Elimination half-life: n = 3, mean ± S.E.
Protocol: II. For Rabbit Experiments
(a) Dinalbuphine ester sebacoyl ester was dissolved in acetonitrile, the concentration was 5.2 mg/ml.
(b) 150 ml of whole blood collected from rats given dinalbuphine sebacoyl ester, and anticoagulant was added.

human body = assay: Analgesic duration of sebacoyl dinalbuphine calculated for the human body; format: in vivo; details: 125 μM/23 kg
Protocol: Therefore, the analgesic effect could be calculated on 4-5 days at 125 μM/23 kg to human body for sebacoyl dinalbuphine.
Besides, such parenteral volume was not ideal for a single dose. However, this invention made a development. By diluting a single dose of sebacoyl dinalbuphine in 7.15 ml sesame oil form, parenteral administration could give the analgesic effect maintained 4 to 5 days. In other words, the analgesic effect was extended […] for a single dose of intramuscularly injected sebacoyl dinalbuphine at only 7 ml oil vehicle.

Question: With `O=C(CCCCCCCCC(=O)Oc1ccc2c3c1O[C@H]1[C@@H](O)CC[C@@]4(O)[C@@H](C2)N(CC2CCC2)CC[C@]314)Oc1ccc2c3c1O[C@H]1[C@@H](O)CC[C@@]4(O)[C@@H](C2)N(CC2CCC2)CC[C@]314` [sebacoyl dinalbuphine ester] as the compound, how does the Elimination half-life ([1]; human plasma) read?
Answer: 9.0 ± 0.4 min

Question: What about the Elimination half-life ([1]; human red blood cell) of the same compound?
Answer: 7.7 ± 0.4 min

Question: And the Elimination half-life ([1]; human whole blood)?
Answer: 8.8 ± 0.4 min

Question: What about the “converted time of 90% into Nalbuphine” value ([1]; humans) of the same compound?
Answer: 30 min

Question: What about the half life ([1]; humans, HPLC) of the same compound?
Answer: 9.0 min

Question: And the “dose dependence of analgesic effect” value (Sprague Dawley rats; FIG. 9, rats, intramuscular, 7.8125, 31.25, 125 μM/kg)?
Answer: proportional to the dose administered

Question: What about the “time to which 50% analgesic effect was extended” value (Sprague Dawley rats; FIG. 10, intramuscular, 125 μM/kg) of the same compound?
Answer: 88 h

Question: And the “analgesic effect relative to Nalbuphine hydrochloride” value (Sprague Dawley rats; intramuscular)?
Answer: 8.8 times

Question: What about the “duration of analgesic effect” value (Sprague Dawley rats; rats, intramuscular, dose below 125 μM/kg) of the same compound?
Answer: 4 to 5 days

Question: And the Elimination half-life ([2]; rat plasma)?
Answer: 2.8 min

Question: What about the Elimination half-life ([2]; rat red blood cell) of the same compound?
Answer: 2.3 ± 0.6 min

Question: And the Elimination half-life ([2]; rat whole blood)?
Answer: 2.2 ± 0.5 min

Question: And the “converted time of 90% into Nalbuphine” value ([2]; rats)?
Answer: 10 min

Question: What about the half life ([2]; rats, HPLC) of the same compound?
Answer: 2.8 min

Question: And the Elimination half-life ([3]; dog plasma)?
Answer: 27.8 ± 0.5 min

Question: What about the Elimination half-life ([3]; dog red blood cell) of the same compound?
Answer: 33.4 ± 1.4 min

Question: What about the Elimination half-life ([3]; dog whole blood) of the same compound?
Answer: 30.5 ± 0.8 min

Question: And the “converted time of 90% into Nalbuphine” value ([3]; dogs)?
Answer: 95 min

Question: What about the half life ([3]; dogs, HPLC) of the same compound?
Answer: 27.8 min

Question: And the Elimination half-life ([4]; rabbit plasma)?
Answer: 6.98 ± 0.03 min

Question: And the Elimination half-life ([4]; rabbit red blood cell)?
Answer: 26.2 ± 4.8 min

Question: What about the Elimination half-life ([4]; rabbit whole blood) of the same compound?
Answer: 14.9 ± 1.3 min

Question: And the “converted time of 90% into Nalbuphine” value ([4]; rabbits)?
Answer: 25 min

Question: And the half life ([4]; rabbits, HPLC)?
Answer: 7.0 min

Question: What about the “duration of analgesic effect calculated for human body” value (human body) of the same compound?
Answer: 4 to 5 days
